This experiment relates to E. faecalis DSM 2570. Kind of experiment: MIC 50, broth micro-dilution, DSM strains. Format: cell-based, Enterococcus faecalis. An excerpt: 3.2 Against Selected Bacteria of the ESKAPE Panel and Enterococcus faecalis (DSM Strains)
Tested reference compounds. Amikacin sulfate (Cat. No. 01693, Chem-Impex), Gentamicin sulfate (Cat. No. G4918, Sigma Aldrich).
Microbial strains. Enterococcus faecalis DSM 2570, Klebsiella pneumoniae DSM 26371, Acinetobacter baumannii DSM 105126, Enterobacter cloacae 3MRGN (clinical bronchial aspirate isolate).
Culture media and equipment. BBL™ Mueller Hinton Broth 2 (Lot. BCBW1143, Cat. No. 70192, Sigma); Trypcase Soy Blood-agar plates (Cat. No. 43001, Biomérieux); Cryoinstant (contains 15% glycerol; Cat. No. 822070ZA, VWR International); GasPak™ EZ Standard Incubation Container (Cat. No. 260671, Becton Dickinson); GasPak™ EZ Campy Container System Sachets (Cat. No. 260680, Becton Dickinson); 96-well deep well plate, 1 mL (Cat. No. 0030506.200, Eppendorf); Plate lid (Cat. No. 0030131.525, Eppendorf); 96-well plate, F-bottom (Cat. No. 260860, Nunc); Incubator (Sartorius Certomat BS-1); Laminar flow (Heraeus HS12); UV/VIS meter (Perkin Elmer Lambda Bio+); Platereader (Tecan Infinite M200 Pro).
Compound preparation. Compounds were prepared in MH2 media at a concentration of 5 mM and stored at 4° C. For testing, solutions of 128 μM were prepared in MH2, for tests against E. faecalis a solution of 512 μM was prepared. Out of these working solutions, 400 μL was transferred to wells in the first column of 96-well deep well plates. Each compound was transferred in triplicate. Plates were previously filled with 200 μL of MH2 media in all wells except for the wells in the first column. After compound and antibiotic addition, the compounds were serial two-fold diluted by transferring 200 μL from the first to the second column, then from the second to the third column and so on. Finally, 200 μL was removed from the last column.
Inoculum preparation. Microorganisms used were all revived from 15% glycerol storage in Croinstant tubes at −28° C. by plating them on blood agar plates. A. baumanni, and E. cloacae were grown aerobically at 37° C., E. faecalis was grown microaerophilically at 37° C., and K. pneumoniae was grown aerobically at 37° C. Plates were stored at 4° C. for up to two weeks, after which new plates were prepared from −28° C. A single colony was inoculated in MH2 media and grown at 37° C. and 200 rpm to an optical density (measured by UV/Vis spectroscopy) of 0.6-0.8 at 600 nm. Out of these suspensions, actual inoculums were prepared by diluting them to an optical density of 0.1 in MH2 media. From these inoculums, 200 μL was transferred to each well, resulting in a final compound concentration range of 64 μM-31.3 nM for, K. pneumoniae, A. baumanni, and E. cloacae, and 256 μM-125 nM for E. faecalis. Plates inoculated with E. faecalis were placed inside a GasPak™ Container System with GasPak™ Campy Container System sachets. All plates were incubated at 200 rpm for 18 h under the microorganism culturing conditions mentioned above.
MIC determination. After 18 h of growth, 200 μL was transferred to a 96-well F-bottom plate. The optical density was determined by a plate reader at 600 nm, with 10 s shaking before reading. Triplicate measurements were averaged, and a growth curve was plotted in Excel. The first column in which the growth reached half the value of maximum growth was determined as the MIC50 value for that particular compound.
MIC50. The MIC50 of a compound was assigned at which the bacterial growth reached half the value of maximum growth.
Background: In broth dilution the organism is exposed to a series of concentrations in liquid medium.

Setting [1] is: Enterococcus faecalis, DSM2570, read-out: MIC 50.

≈ marks a conversion by molar mass, not a printed value. Where two headings read alike, the source gives them in different places. Where only a bound is given, the exact number is not on record here.

On to `N=C(N)NC1[C@@H](O)C(OC2[C@@H](F)[C@H](O[C@H]3OC(CN)[C@@H](O)[C@H](O)C3N)C(N)C[C@H]2NC(=O)[C@@H](O)CCN)O[C@H](CO)[C@H]1O` (stereo partly drawn) [ABX4006, KanaB-AHB-F-Gua], for which, under setting [1], the MIC50 was in the range of 16 to 32 µM (≈ 10.1 to 20.1 µg/mL).

For `N=C(N)NC1[C@@H](O)C(OC2[C@@H](F)[C@H](O[C@H]3OC(CN)[C@@H](O)[C@H](O)C3O)C(N)C[C@H]2NC(=O)[C@@H](O)CCN)O[C@H](CO)[C@H]1O` (stereo partly drawn) [ABX3003, 3′epi-KanaA-AHB-F-Gua], under setting [1], the MIC50 was determined as 64 µM (≈ 40.3 µg/mL).

`NCC[C@H](O)C(=O)N[C@@H]1C[C@H](N)[C@@H](O[C@H]2O[C@H](CN)[C@@H](O)[C@H](O)[C@H]2O)[C@H](O)[C@H]1O[C@H]1O[C@H](CO)[C@@H](O)[C@H](N)[C@H]1O` [Amikacin, amikacin, reference compound]: the MIC50 under setting [1] is greater than 64 µM.

Turning to `N=C(N)NC1[C@@H](O)C(OC2[C@@H](O)[C@H](O[C@H]3OC(CN)[C@@H](O)[C@H](O)C3N)C(N)C[C@H]2NC(=O)[C@@H](O)CCN)O[C@H](CO)[C@H]1O` (stereo partly drawn) [ABX4009, KanaB-AHB-Gua], the “MIC50” value lay within 64 to 128 µM.

Consider `N=C(N)NC1[C@@H](O)C(OC2[C@@H](F)[C@H](O[C@H]3OC(CNCCO)[C@@H](O)CC3N)C(N)C[C@H]2NC(=O)[C@@H](O)CCN)O[C@H](CO)[C@H]1O` (stereo partly drawn) [ABX5045, 6N-2-hydroxy-ethyl-Tobra-AHB-F-Gua], for which the MIC50 under setting [1] fell in the range of 8 to 16 µM (≈ 5.25 to 10.5 µg/mL).

`NCC[C@H](O)C(=O)N[C@@H]1CC(N)[C@@H](O[C@H]2OC(CN)[C@@H](O)[C@@H](O)C2N)[C@H](O)C1OC1O[C@H](CO)[C@@H](O)C(N)[C@H]1O` (stereo partly drawn) [ABX4002, 3′Epi-KanaB-AHB]: the “MIC50” value was 16 to 32 µM.

Source of the values: patent US20220127297A1, “Novel Antibacterial 3"-Derivatives Of 4,6-Disubstituted 2,5-Dideoxystreptamine Aminoglycoside Antibiotics” (AGILeBiotics B.V., priority 2018, published 2022).
